{"source": "paper PMC6798786", "about": "(Brain Communications, 2019)", "key": {"[1]": {"tested_on": "scn1lab mutant zebrafish", "assay": "locomotion (mean swim velocity) seizure-like behaviour assay in scn1lab mutant zebrafish larvae", "assay_type": "in vivo, Danio rerio", "details": "three concentrations; 30 and 90 min exposure", "protocol": "For locomotion studies, zebrafish larvae (5 days post-fertilization) were placed into a single well of a clear flat-bottomed 96-well microplate containing embryo media. Sex determination is not possible at this stage of development. All drug screening experiments were conducted in an unbiased manner by investigators blinded to the test compounds and all files coded for post hoc analysis. The 96-well plate containing larvae was then placed inside a DanioVision box where they were allowed to acclimate (20 min; room temperature). EthoVision XT software (DanioVision, Noldus Information Technology) was used to obtain locomotion plots (10 min in duration). Seizure scoring was performed, as described ([Baraban et al., 2005]). All locomotion plots were analysed for distance travelled (in millimetres) and mean velocity (in millimetres per second). After 90 min of drug exposure larvae were examined for toxic side-effects. Compounds that decreased or stopped the larva heartbeat, or reduced or eliminated the escape response when touched, were considered toxic.\nFor behaviour analysis, the threshold for a change in mean swim velocity ≥40% is considered significant (>1.5× SD of 250 control treated scn1lab). Unless otherwise indicated, all data in this manuscript are presented as the mean ± standard error of the mean. […] Statistically significant differences are indicated with asterisks (*P < 0.05; **P < 0.01; ***P < 0.001). […]"}, "[2]": {"tested_on": "scn1lab mutant zebrafish", "assay": "local field potential (LFP) electrophysiology, electrographic seizure events", "assay_type": "in vivo, Danio rerio", "details": "250 µM; 10 min recording epoch", "protocol": "Using a glass micro-electrode positioned under an upright microscope, local field potential (LFP) recordings were obtained from forebrain or optic tectum structures, as described ([Baraban et al., 2005]). Agarose-embedded LFP recording sessions (10 min in duration) were obtained using Axoclamp software (Molecular Devices; Sunnyvale, CA, USA) and sampled at 1 kHz. Epileptiform events were identified post hoc. These were classified as multi-spike or poly-spike upward or downward membrane deflections greater than 3× baseline noise level and 150–250 ms in duration (interictal-like) or greater than 5× baseline noise, multi-spike and >500 ms in duration (ictal-like); both events were counted using threshold detection settings in Clampfit (Molecular Devices; Sunnyvale, CA, USA). Agarose-embedded larvae were continuously monitored for blood flow and heart rate using an Axiocam digital camera at video frame rate.\nMonitoring electrographic brain activity to confirm seizure suppression is an essential assay to eliminate false positives from behavioural testing ([Griffin et al., 2018]). By placing a micro-electrode into a visually identified brain region of an agar-immobilized zebrafish larval, stable LFP recordings can be monitored for several hours ([Baraban, 2013]). At 5 days post-fertilization, LFP recordings of scn1Lab zebrafish larvae show an average of 250 abnormal electrographic seizure events during a 10 min recording epoch."}, "[3]": {"molecular_target": "T1, human 5-HT2AR (Homo sapiens, UniProt P28223)", "T1 sequence (P28223 whole entry)": "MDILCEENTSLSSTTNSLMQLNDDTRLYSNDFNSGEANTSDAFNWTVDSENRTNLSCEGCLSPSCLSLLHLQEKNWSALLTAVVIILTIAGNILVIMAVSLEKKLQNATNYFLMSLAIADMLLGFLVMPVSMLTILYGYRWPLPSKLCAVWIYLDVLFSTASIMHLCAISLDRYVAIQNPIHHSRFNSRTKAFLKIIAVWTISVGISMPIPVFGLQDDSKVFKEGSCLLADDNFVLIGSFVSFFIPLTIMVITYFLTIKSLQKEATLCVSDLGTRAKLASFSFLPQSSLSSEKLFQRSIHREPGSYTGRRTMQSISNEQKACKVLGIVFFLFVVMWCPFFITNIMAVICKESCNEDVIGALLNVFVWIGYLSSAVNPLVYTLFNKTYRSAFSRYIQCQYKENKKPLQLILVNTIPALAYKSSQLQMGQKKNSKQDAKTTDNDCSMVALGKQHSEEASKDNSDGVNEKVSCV", "details": "known drugs of Table 1; reference not given; read-out: Ki 5-HT2A, Table 1 known drugs; cited from earlier work"}, "[4]": {"molecular_target": "5-HT1A", "details": "known drugs of Table 1; reference not given; cited from earlier work"}, "[5]": {"molecular_target": "5-HT7", "details": "known drugs of Table 1; reference not given; cited from earlier work"}, "[6]": {"molecular_target": "5-HT transporter", "details": "known drugs of Table 1; reference not given; cited from earlier work"}, "[7]": {"molecular_target": "T2, human 5-HT2BR (Homo sapiens, UniProt P41595)", "T2 sequence (P41595 whole entry)": "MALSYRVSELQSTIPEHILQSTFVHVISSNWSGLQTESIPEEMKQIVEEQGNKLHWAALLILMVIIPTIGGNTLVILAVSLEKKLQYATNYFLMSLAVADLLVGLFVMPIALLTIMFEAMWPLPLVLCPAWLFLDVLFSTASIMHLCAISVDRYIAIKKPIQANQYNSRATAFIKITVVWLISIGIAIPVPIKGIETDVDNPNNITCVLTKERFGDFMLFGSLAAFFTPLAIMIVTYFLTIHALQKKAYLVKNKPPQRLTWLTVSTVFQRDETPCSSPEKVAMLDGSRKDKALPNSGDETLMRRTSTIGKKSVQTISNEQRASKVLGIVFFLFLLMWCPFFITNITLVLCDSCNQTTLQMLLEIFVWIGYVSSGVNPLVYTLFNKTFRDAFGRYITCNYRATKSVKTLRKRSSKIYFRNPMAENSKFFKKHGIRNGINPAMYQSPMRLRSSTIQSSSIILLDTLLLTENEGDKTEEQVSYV"}, "[8]": {"molecular_target": "T3, human 5-HT2CR (Homo sapiens, UniProt P28335)", "T3 sequence (P28335 33-458)": "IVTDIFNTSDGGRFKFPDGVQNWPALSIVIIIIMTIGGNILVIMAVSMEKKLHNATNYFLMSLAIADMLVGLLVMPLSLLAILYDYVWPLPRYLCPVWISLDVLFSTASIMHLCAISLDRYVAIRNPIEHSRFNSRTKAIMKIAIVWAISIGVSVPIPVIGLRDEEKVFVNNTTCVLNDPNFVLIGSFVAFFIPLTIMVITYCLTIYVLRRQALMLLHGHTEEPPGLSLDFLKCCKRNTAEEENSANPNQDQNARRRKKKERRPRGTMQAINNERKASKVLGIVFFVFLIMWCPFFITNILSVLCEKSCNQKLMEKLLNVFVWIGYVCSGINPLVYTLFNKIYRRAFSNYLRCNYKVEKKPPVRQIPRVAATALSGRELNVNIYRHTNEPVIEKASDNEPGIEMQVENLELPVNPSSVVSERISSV"}, "[9]": {"molecular_target": "5-HT1E", "details": "known drugs of Table 1; reference not given; cited from earlier work"}, "[10]": {"molecular_target": "5-HT1F", "details": "known drugs of Table 1; reference not given; cited from earlier work"}, "[11]": {"molecular_target": "T1, human 5-HT2AR", "assay": "radioligand binding (NIMH PDSP)", "details": "recombinant, stably expressed human receptor; clemizole analogues", "protocol": "(§1) All in vitro binding assay and Ki data studies were performed by the US National Institute of Mental Health Psychoactive Drug Screening Program (NIMH PDSP). For these studies, drugs were screened against recombinant, stably expressed human 5-HT2AR, 5-HT2BR, 5-HT2CR and H1, as described at https://pdspdb.unc.edu/pdspWeb/ ([Besnard et al., 2012])."}, "[12]": {"molecular_target": "T2, human 5-HT2BR", "assay": "radioligand binding (NIMH PDSP)", "details": "recombinant, stably expressed human receptor; clemizole analogues; read-out: Ki 5-HT2BR", "protocol": "as §1"}, "[13]": {"molecular_target": "T3, human 5-HT2CR", "assay": "radioligand binding (NIMH PDSP)", "details": "recombinant, stably expressed human receptor; clemizole analogues", "protocol": "as §1"}, "[14]": {"molecular_target": "T4, human H1 (Homo sapiens, UniProt P35367)", "T4 sequence (P35367 whole entry)": "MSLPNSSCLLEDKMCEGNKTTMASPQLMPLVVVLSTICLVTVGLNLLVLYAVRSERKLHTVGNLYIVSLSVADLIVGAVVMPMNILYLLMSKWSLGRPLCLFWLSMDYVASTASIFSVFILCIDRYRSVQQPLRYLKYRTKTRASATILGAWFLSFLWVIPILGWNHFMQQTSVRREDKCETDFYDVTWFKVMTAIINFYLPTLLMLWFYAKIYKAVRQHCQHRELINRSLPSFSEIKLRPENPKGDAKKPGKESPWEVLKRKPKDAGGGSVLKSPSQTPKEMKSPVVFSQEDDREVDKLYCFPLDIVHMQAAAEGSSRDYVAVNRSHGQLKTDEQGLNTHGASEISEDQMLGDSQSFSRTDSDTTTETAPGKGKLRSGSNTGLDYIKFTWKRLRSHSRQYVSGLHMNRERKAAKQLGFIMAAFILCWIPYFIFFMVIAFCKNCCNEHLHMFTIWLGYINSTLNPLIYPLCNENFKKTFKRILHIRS", "assay": "radioligand binding (NIMH PDSP)", "details": "recombinant, stably expressed human receptor; clemizole analogues; read-out: Ki H1", "protocol": "as §1"}, "[15]": {"tested_on": "human 5-HT2R", "assay": "radioligand binding (NIMH PDSP), any 5-HT2R subtype", "details": "5-HT2AR, 5-HT2BR, 5-HT2CR", "protocol": "as §1\nAdditionally, 5-HT2R modulating compounds exert antiepileptic activity in both preclinical ([Sourbron et al., 2016]; [Griffin et al., 2017]) and clinical studies ([Griffin et al., 2017]; [Schoonjans et al., 2017]; [Kauppila et al., 2018]). […] […]."}, "[16]": {"molecular_target": "T4, human H1", "details": "known drugs of Table 1; reference not given; read-out: Ki Histamine H1, Table 1 known drugs; cited from earlier work"}, "[17]": {"molecular_target": "5-HT1B", "details": "known drugs of Table 1; reference not given; cited from earlier work"}, "[18]": {"molecular_target": "5-HT1D", "details": "known drugs of Table 1; reference not given; cited from earlier work"}, "[19]": {"molecular_target": "5-HT6", "details": "known drugs of Table 1; reference not given; cited from earlier work"}, "[20]": {"molecular_target": "Histamine H3", "details": "known drugs of Table 1; reference not given; cited from earlier work"}, "[21]": {"molecular_target": "Norepinephrine transporter", "details": "known drugs of Table 1; reference not given; cited from earlier work"}}, "note": "Read-outs that look alike come from different tables or passages of the source.", "data": [{"molecule": "CC(N)Cc1ccc2ccoc2c1", "note": "(stereo not shown) [Compound 6-APB, 6-(2-aminopropyl)benzofuran]", "values": [{"measurement": "effect on seizure-like swim behaviour, commercially available compounds", "setting": "[1]", "result": "suppressed convulsive swim behaviours in a concentration-dependent manner"}, {"measurement": "effect on frequency of electrographic seizure events (LFP)", "setting": "[2]", "result": "significantly suppressed the frequency of electrographic seizure events"}, {"measurement": "Ki", "setting": "[3]", "result": 1930, "unit": "nM"}, {"measurement": "Ki", "setting": "[4]", "result": 1280, "unit": "nM"}, {"measurement": "Ki", "setting": "[5]", "result": 155, "unit": "nM"}, {"measurement": "Ki", "setting": "[6]", "result": 2700, "unit": "nM"}]}, {"molecule": "CC[C@@H](CO)NC(=O)[C@@H]1C=C2c3cccc4[nH]cc(c34)C[C@H]2N(C)C1", "note": "[methylergonovine]", "values": [{"measurement": "effect on seizure-like swim behaviour, commercially available compounds", "setting": "[1]", "result": "suppressed convulsive swim behaviours in a concentration-dependent manner"}, {"measurement": "effect on frequency of electrographic seizure events (LFP)", "setting": "[2]", "result": "significantly suppressed the frequency of electrographic seizure events"}, {"measurement": "Ki", "setting": "[7]; read-out: Ki 5-HT2B, Table 1 known drugs; known drugs of Table 1; reference not given; cited from earlier work", "result": 2.2, "unit": "nM"}, {"measurement": "Ki", "setting": "[8]; read-out: Ki 5-HT2C, Table 1 known drugs; known drugs of Table 1; reference not given; cited from earlier work", "result": 4.6, "unit": "nM"}, {"measurement": "Ki", "setting": "[9]", "result": 89.1, "unit": "nM"}, {"measurement": "Ki", "setting": "[10]", "result": 31, "unit": "nM"}]}, {"molecule": "c1ccc2c(c1)nc(CN1CCCC1)n2CC1CCOCC1", "note": "[Compound 15]", "values": [{"measurement": "Ki", "setting": "[11]", "result": "> 10000", "unit": "nM"}, {"measurement": "Ki", "setting": "[12]", "result": "> 10000", "unit": "nM"}, {"measurement": "Ki", "setting": "[13]", "result": "> 10000", "unit": "nM"}, {"measurement": "Ki", "setting": "[14]", "result": 865, "unit": "nM"}, {"measurement": "binding to any human 5-HT2R", "setting": "[15]", "result": "no significant binding"}]}, {"molecule": "Clc1ccc(Cn2c(CN3CCCC3)nc3ccccc32)cc1", "note": "[clemizole]", "values": [{"measurement": "Ki", "setting": "[3]", "result": 239, "unit": "nM"}, {"measurement": "Ki", "setting": "[7]; known drugs of Table 1; reference not given; read-out: Ki 5-HT2B, Table 1 known drugs; cited from earlier work", "result": 25, "unit": "nM"}, {"measurement": "Ki", "setting": "[8]; known drugs of Table 1; reference not given; read-out: Ki 5-HT2C, Table 1 known drugs; cited from earlier work", "result": 197, "unit": "nM"}, {"measurement": "Ki", "setting": "[16]", "result": 1.3, "unit": "nM"}, {"measurement": "Ki", "setting": "[4]", "result": "> 10000", "unit": "nM"}, {"measurement": "Ki", "setting": "[17]", "result": "> 10000", "unit": "nM"}, {"measurement": "Ki", "setting": "[18]", "result": "> 10000", "unit": "nM"}, {"measurement": "Ki", "setting": "[19]", "result": "> 10000", "unit": "nM"}, {"measurement": "Ki", "setting": "[5]", "result": "> 10000", "unit": "nM"}, {"measurement": "Ki", "setting": "[20]", "result": 402, "unit": "nM"}, {"measurement": "Ki", "setting": "[21]", "result": "> 10000", "unit": "nM"}]}]}
